Laboratory results as given in patent US20130289070A1, “Use of Levocabastine for Modulating Generation of Pro-Inflammatory Cytokines” (Bausch & Lomb Incorporated, priority 2007, published 2013).

Tested on: EoL-1 (human eosinophilic leukaemia cell line) cells
Experiment: TNF-α-induced cytokine release, EoL-1 cells differentiated with PMA (Luminex)
Type: cell-based
Parameters: key to IL-1α (PMA), p of decrement / IL-1β (PMA), p of decrement / IL-1ra (PMA), p of decrement / IL-5 (PMA), p of decrement / IL-7 (PMA), p of decrement / IL-8 (PMA), p of decrement / IP-10 (PMA), p of decrement / MCP-1 (PMA), p of decrement / MIP-1β (PMA), p of decrement / RANTES (PMA), p of decrement / VEGF (PMA), p of decrement / Fractalkine (PMA), p of decrement / MIP-1α (PMA), p of decrement: ns = non significant
Details: 24 h
Protocol: EoL-1 (human eosinophilic leukaemia cell line) cells (Saito et al., 1985; Mayumi, 1992) were maintained in RPMI-1640 medium with L-glutamine supplemented with 10% (v/v) FBS at 37° C. in a humidified atmosphere with 5% CO2. Where indicated, 24 h before the experiment 25 ng/mL PMA ((phorbol 12-myristate 13-acetate, purchased from Sigma Aldrich) was added to the medium to induce eosinophil granulation and differentiation (Ohtsu et al., 1993; Zimmermann et al., 2000).
Half-million cells were aliquoted per point in a 24 well plate; each experiment was performed in triplicate and carried out in parallel with eosinophils differentiated and non differentiated with PMA (25 ng/mL, 24 h). Cells were suspended in low serum medium (RPMI-1640, 0.1% (v/v) FBS). TNF-α was used to induce cytokine secretion as previously described by Steube et al. (2000), and the net release was obtained by comparison to the basal (non-TNF-α treated). In the first experiment we evaluated the concentration and time relation between TNF-α stimulation and cytokine release. Therefore, 5, 10, and 25 ng/mL of TNF-α was administered to the cells at 0, ½, 1, 2, 3, 6, 12 and 24 h (data not shown). An aliquot of 150 μL of supernate was collected for cytokines' analysis. […] Differentiated and non-differentiated EoL-1 cells were exposed from 0.1 to 2.3 mM levocabastine ([…]Levocabastine 0.05% solution eye drops containing cyclodextrins, without benzalkonium chloride), and aliquots of the supernates were collected after 12 and 24 h. The content of cytokines at time zero was estimated by treating the cells with 400 nM calcimycin (A-23187), which is a cytolytic agent that frees all the mediators from the cytoplasmic compartment. In addition, for each experiment we tested the effect of the vehicle, which was added to the wells in a concentration equal to the maximum amount used for drug dilution.
Samples (supernates 12 and 24 h) in triplicate were analyzed using Luminex 200™ (Luminex, Austin, Tex.) and Beadview software v1.0 (Upstate Cell Signaling Solutions, Temecula, Calif.).
All data are presented as mean±SEM for the indicated number of experiments. Statistical significance was determined by Newman-Keuls test after ANOVA using GraphPad Prism (version 3.0; GraphPad Software Inc., San Diego, Calif., USA). P-values<0.05 were considered to be significant.

[1] = TNF-α 5 ng + Levocabastine 2 mM vs TNF-α
[2] = TNF-α 10 ng + Levocabastine 2 mM vs TNF-α
[3] = TNF-α 20 ng + Levocabastine 2 mM vs TNF-α
[4] = TNF-α 5, 10, 20 ng + Levocabastine 2 mM vs TNF-α

Structure (SMILES): C[C@@H]1CN([C@H]2CC[C@](C#N)(c3ccc(F)cc3)CC2)CC[C@]1(C(=O)O)c1ccccc1 [Levocabastine, levocabastine]
- IL-12p40 (PMA), p of decrement (Levocabastine 2 mM vs TNF-α): P < 0.001
- IP-10 (PMA), p of decrement (Levocabastine 2 mM vs TNF-α): ns
- MCP-1 (PMA), p of decrement (Levocabastine 2 mM vs TNF-α): ns
- MIP-1α (PMA), p of decrement (Levocabastine 2 mM vs TNF-α): Increase
- MIP-1β (PMA), p of decrement (Levocabastine 2 mM vs TNF-α): Increase
- RANTES (PMA), p of decrement (Levocabastine 2 mM vs TNF-α): Increase
- TGF-α (PMA), p of decrement (Levocabastine 2 mM vs TNF-α): ns
- VEGF (PMA), p of decrement (Levocabastine 2 mM vs TNF-α): P < 0.001
- Fractalkine (PMA), p of decrement [1]: ns
- G-CSF (PMA), p of decrement [1]: ns
- GM CSF (PMA), p of decrement [1]: ns
- IL-1β (PMA), p of decrement [1]: ns
- IL-5 (PMA), p of decrement [1]: ns
- IL-6 (PMA), p of decrement [1]: ns
- IL-7 (PMA), p of decrement [1]: ns
- IL-8 (PMA), p of decrement [1]: P < 0.001
- IL-10 (PMA), p of decrement [1]: ns
- IL-12p40 (PMA), p of decrement [1]: ns
- IP-10 (PMA), p of decrement [1]: ns
- MCP-1 (PMA), p of decrement [1]: ns
- MIP-1α (PMA), p of decrement [1]: ns
- MIP-1β (PMA), p of decrement [1]: ns
- TGF-α (PMA), p of decrement [1]: ns
- VEGF (PMA), p of decrement [1]: P < 0.05
- Fractalkine (PMA), p of decrement [2]: ns
- G-CSF (PMA), p of decrement [2]: ns
- GM CSF (PMA), p of decrement [2]: ns
- IL-1β (PMA), p of decrement [2]: ns
- IL-5 (PMA), p of decrement [2]: ns
- IL-6 (PMA), p of decrement [2]: ns
- IL-7 (PMA), p of decrement [2]: ns
- IL-8 (PMA), p of decrement [2]: P < 0.001
- IL-10 (PMA), p of decrement [2]: ns
- IL-12p40 (PMA), p of decrement [2]: ns
- IP-10 (PMA), p of decrement [2]: ns
- MCP-1 (PMA), p of decrement [2]: ns
- MIP-1α (PMA), p of decrement [2]: ns
- MIP-1β (PMA), p of decrement [2]: ns
- TGF-α (PMA), p of decrement [2]: ns
- VEGF (PMA), p of decrement [2]: ns
- Fractalkine (PMA), p of decrement [3]: ns
- G-CSF (PMA), p of decrement [3]: ns
- GM CSF (PMA), p of decrement [3]: ns
- IL-1β (PMA), p of decrement [3]: ns
- IL-5 (PMA), p of decrement [3]: ns
- IL-6 (PMA), p of decrement [3]: ns
- IL-7 (PMA), p of decrement [3]: ns
- IL-8 (PMA), p of decrement [3]: P < 0.001
- IL-10 (PMA), p of decrement [3]: ns
- IL-12p40 (PMA), p of decrement [3]: ns
- IP-10 (PMA), p of decrement [3]: ns
- MCP-1 (PMA), p of decrement [3]: ns
- MIP-1α (PMA), p of decrement [3]: ns
- MIP-1β (PMA), p of decrement [3]: ns
- TGF-α (PMA), p of decrement [3]: ns
- VEGF (PMA), p of decrement [3]: P < 0.05
- IL-1ra (PMA), p of decrement [4]: increase of cytokine secretion
- IL-1α (PMA), p of decrement [4]: increase of cytokine secretion
- RANTES (PMA), p of decrement [4]: increase of cytokine secretion
- Fractalkine (PMA), p of decrement (TNF-α vs Lev 0.1 mM): ns
- IL-1ra (PMA), p of decrement (TNF-α vs Lev 0.1 mM): ns
- IL-1α (PMA), p of decrement (TNF-α vs Lev 0.1 mM): ns
- IL-1β (PMA), p of decrement (TNF-α vs Lev 0.1 mM): p < 0.05
- IL-5 (PMA), p of decrement (TNF-α vs Lev 0.1 mM): ns
- IL-7 (PMA), p of decrement (TNF-α vs Lev 0.1 mM): ns
- IL-8 (PMA), p of decrement (TNF-α vs Lev 0.1 mM): ns
